Measured values: paper PMC9343080, “Distribution- and Metabolism-Based Drug Discovery: A Potassium-Competitive Acid Blocker as a Proof of Concept” (Research, 2022)
Where a name gives a salt, the structure may show the parent alone. Read-outs that look alike come from different tables or passages of the source.

Key:
[1] = design: method as in PMID 27414183; conditions: human hepatocytes; ref [42]; cited from earlier work
[2] = Tissue distribution of SH-337 in rats (LC-MS/MS); format: in vivo, rat
Protocol: 15 SPF male SD rats were randomly divided into 5 groups, three per group. Fasting was for 4 hours. Plasma, heart, liver, and stomach were obtained 0.25, 1, 2, 4, and 24 hours after oral administration of SH-337 (0.4 mg/mL in water) at a dose of 4 mg/kg. At designated time points, rats were anesthetized with ether, and the blood samples were collected via the abdominal aorta. The blood was immediately cooled under ice-chilled conditions and centrifuged at approximately 1500 × g at 4°C for 10 minutes to obtain the plasma. For plasma: 20 μL Std samples in duplicate, QC samples in duplicate, and rat plasma samples were mixed with 60 μL ACN containing IS (200 ng/mL of tolbutamide, 50 ng/mL of propranolol, and 500 ng/mL of Dic) in EP tubes. After the mixture was vortexed for 1 min and then centrifuged for 10 min (13000 rpm, 4°C), transfer 50 μL supernatant to a 96-well plate with 150 μL pure water, shake for 10 min, and finally analyze by LC-MS/MS. For heart and liver: tissue samples were added with 3-folds (w/v) saline in terms of the weight of samples and then homogenated. 20 μL Std samples in duplicate, QC samples in duplicate, and rat heart and liver samples were mixed with 60 μL ACN containing IS (200 ng/mL of tolbutamide, 50 ng/mL of propranolol, and 500 ng/mL of Dic) in EP tubes. After the mixture was vortexed for 1 min and then centrifuged for 10 min (13000 rpm, 4°C), transfer 50 μL supernatant to a 96-well plate with 150 μL pure water, shake for 10 min, and finally analyze by LC-MS/MS. For stomach: tissue samples were added with 3-folds (w/v) saline in terms of the weight of samples and then homogenated. 20 μL Std samples in duplicate, QC samples in duplicate, and rat stomach samples were mixed with 60 μL ACN containing IS (200 ng/mL of tolbutamide, 50 ng/mL of propranolol, and 500 ng/mL of Dic) in EP tubes. After the mixture was vortexed for 1 min and then centrifuged for 10 min (13000 rpm, 4°C), transfer 50 μL supernatant to a 96-well plate with 150 μL pure water, shake for 10 min, and finally analyze by LC-MS/MS.

[3] = Metabolite profiling, range over rat and human liver microsomes; format: in vitro ADME; conditions: rat and human microsomes after 30 and 60 min incubation
Protocol: (§1) Liver microsomes (1 mg protein/mL) were suspended in phosphate buffer (50 mM, pH 7.4) containing MgCl2 (6 mM). […] The reactions were initiated at 37°C by the addition of 1 mM NADPH and terminated at 30 min or 60 min (30 min for rat; 60 min for human). The samples were precipitated with acetonitrile at 1 : 2 and further centrifuged; the supernatants were dried with a stream of N2 gas. The residues were reconstituted with 300 μL of 10% acetonitrile/H2O (0.1% TFA) and analyzed by LC-MS/MS. The assays were pursued under the conditions provided in Supplementary Tables S4, S6, S7, and S8.

[4] = Metabolite identification and profiling in rat liver microsomes; format: in vitro ADME
Protocol: as §1

[5] = target: T1, rabbit gastric H+, K+-ATPase (Oryctolagus cuniculus, UniProt P27112); test: In vitro enzymatic activity assay (inorganic phosphate from ATP hydrolysis); format: biochemical
T1 construct: using rabbit gastric H^+, K^+-ATPase; from tissue; host or cells: rabbit stomach (gastric preparation; the method of preparation is not described)
T1 sequence (P27112 whole entry): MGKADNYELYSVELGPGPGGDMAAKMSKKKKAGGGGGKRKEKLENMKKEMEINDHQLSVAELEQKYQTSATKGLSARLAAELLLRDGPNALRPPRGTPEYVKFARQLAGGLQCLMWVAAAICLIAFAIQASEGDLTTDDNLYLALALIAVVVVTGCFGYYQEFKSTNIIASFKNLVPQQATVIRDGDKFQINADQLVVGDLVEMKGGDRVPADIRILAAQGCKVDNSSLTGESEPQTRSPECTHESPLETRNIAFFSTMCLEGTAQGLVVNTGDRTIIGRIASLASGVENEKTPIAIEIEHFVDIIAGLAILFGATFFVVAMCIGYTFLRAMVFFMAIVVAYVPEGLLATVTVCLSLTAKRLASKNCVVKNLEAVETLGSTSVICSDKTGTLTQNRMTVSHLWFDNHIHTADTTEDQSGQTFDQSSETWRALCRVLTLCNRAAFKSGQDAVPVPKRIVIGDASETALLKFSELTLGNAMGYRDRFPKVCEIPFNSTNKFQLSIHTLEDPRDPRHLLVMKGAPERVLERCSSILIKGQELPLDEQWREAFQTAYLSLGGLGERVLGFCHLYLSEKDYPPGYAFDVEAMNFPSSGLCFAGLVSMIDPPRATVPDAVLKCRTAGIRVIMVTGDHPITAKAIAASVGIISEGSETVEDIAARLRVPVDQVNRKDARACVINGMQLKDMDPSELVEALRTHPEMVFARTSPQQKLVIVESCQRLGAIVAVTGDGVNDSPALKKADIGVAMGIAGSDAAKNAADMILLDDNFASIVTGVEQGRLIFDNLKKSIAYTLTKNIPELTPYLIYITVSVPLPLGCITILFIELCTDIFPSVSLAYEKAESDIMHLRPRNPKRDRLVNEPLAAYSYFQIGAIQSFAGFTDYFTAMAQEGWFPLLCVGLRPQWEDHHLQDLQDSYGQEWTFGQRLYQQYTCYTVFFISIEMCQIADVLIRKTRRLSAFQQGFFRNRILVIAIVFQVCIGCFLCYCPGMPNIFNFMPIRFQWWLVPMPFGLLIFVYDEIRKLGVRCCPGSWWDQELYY
T1 sequence (P18597 whole entry partner): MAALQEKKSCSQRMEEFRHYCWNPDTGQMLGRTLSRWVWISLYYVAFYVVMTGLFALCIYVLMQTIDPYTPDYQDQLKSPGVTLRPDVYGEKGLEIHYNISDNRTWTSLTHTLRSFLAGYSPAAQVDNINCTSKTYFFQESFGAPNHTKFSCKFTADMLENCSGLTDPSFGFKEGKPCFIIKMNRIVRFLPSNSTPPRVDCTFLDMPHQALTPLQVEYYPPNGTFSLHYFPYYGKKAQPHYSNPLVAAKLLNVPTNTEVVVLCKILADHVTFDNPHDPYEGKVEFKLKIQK
Protocol: The in vitro enzymatic activity was calculated by measuring the inorganic phosphate produced by the hydrolysis of ATP using rabbit gastric H^+, K^+-ATPase. 0.25 μg enzyme was preincubated at 37°C for 30 min in Tris-HCl buffer (2.0 mL, 50 mM, pH 6.5) containing 5 mM MgCl2, 10 μM valinomycin, 0 or 20 mM KCl, and different concentrations of SH-337 and vonoprazan. The reaction was initiated by adding 5 μL of 5 mM ATP 2Na, and the preparation was incubated for 30 min at 37°C and halted by the addition of 100 μL of malachite green reagent (0.12% malachite green, 7.5% ammonium molybdate, and 11% tween 20 were mixed in a volume ratio of 100 : 25 : 2). H^+, K^+-ATPase activity was calculated after subtracting the enzyme activity in the absence of KCl.

[6] = Metabolite identification and profiling in human hepatocytes; format: in vitro ADME
Protocol: (§2) SH-337 was incubated with rat or human hepatocytes at a concentration of 1.0 × 10^6 cells/mL for 60 min or 120 min (rat 60 min, human 120 min) at 37°C in a CO2 incubator. The samples were precipitated with acetonitrile at 1 : 2 and further centrifuged; the supernatants were dried with a stream of N2 gas. The residues were reconstituted with 300 μL of 10% acetonitrile/H2O (0.1% TFA) and analyzed by LC-MS/MS. The assays were pursued under the conditions provided in Supplementary Tables S5–S8.

[7] = Metabolite identification and profiling in human liver microsomes; format: in vitro ADME
Protocol: as §1

[8] = Metabolite identification and profiling in rat hepatocytes; format: in vitro ADME; conditions: for Relative peak area, RHeps: SH-337, rat hepatocytes, 60 min incubation
Protocol: as §2

[9] = Metabolite profiling, range over rat and human hepatocytes; format: in vitro ADME; conditions: rat and human hepatocytes after 60 and 120 min incubation
Protocol: as §2

[10] = cited from earlier work
[11] = log D7.4 measurement (1-octanol/PBS pH 7.4); format: physicochemical; conditions: 1-octanol/PBS, pH 7.4, pH 7.4
Protocol: (§3) Procedure for pKa and log D7.4 measurements. The pKa was determined using pH-metric Method from DMSO Stock Solution. Procedure for Log D determinations: 15 µL of stock solutions of test compounds and control compound was placed in order into their proper 96-well rack. 500 µL of PBS saturated 1-octanol was added into each vial of the cap-less Log D plate followed by the addition of 500 µL of 1-octanol saturated PBS (pH 7.4). One stir stick was added to each vial and a molded PTFE/Silicone plug was used to seal each vial. Then the Log D plate was transferred to the Eppendorf Thermomixer Comfort plate shaker and shaken at 25°C at 1,100 RPM for 1 hour. After completion of 1 hour, plugs were removed and the stir sticks were removed using a big magnet. The samples were then centrifuged at 25°C at 20,000 g for 20 minutes to separate the phases, and pipette and syringe were used to remove the upper (1-octanol) and lower (buffer) phases to the empty tubes, respectively. Aliquots of 5 µL were taken from upper phases followed by addition of 495 µL of a mixture of H2O and acetonitrile (1:1 in v/v). Vortex for 1 minute, and then aliquots of 50 µL were taken from the diluent followed by addition of 450 µL of a mixture of H2O and acetonitrile (1:1 in v/v). And aliquots of 50 µL were taken from lower phases followed by addition of 450 µL of a mixture of H2O and acetonitrile (1:1 in v/v). 200 μL of diluent was transferred to a new 96-well plate for LC-MS/MS analysis. The dilution factor was changed according to the Log D value and the LC-MS signal response. The concentrations of test compound and control compound in 1-octanol/buffer solution were evaluated by LC-MS/MS. The Log D values of the test compounds and control compound were calculated as follows: […]

[12] = pKa measurement (pH-metric method); format: physicochemical; conditions: read-out: pKa
Protocol: as §3

[13] = rats, i.g. 2 mg/kg vonoprazan, ref [43]

C/[N+]([O-])=C/c1cc(-c2ccccc2F)n(S(=O)(=O)c2cccnc2)c1 [M-III]
share in the in vitro metabolic profile of vonoprazan [1]: 4.1%

O=C(O)c1c[nH]c(-c2ccccc2F)c1 [M-II]
share in the in vitro metabolic profile of vonoprazan [1]: 0.5%

CNCc1cc(-c2ccc(O)cc2F)n(S(=O)(=O)c2cccnc2)c1.Cl.Cl [M-IV, 3-fluoro-4-(4-((methylamino)methyl)-1-(pyridin-3-ylsulfonyl)-1H-pyrrol-2-yl)phenol dihydrochloride]
AUC0–24 in the liver ([2]; after oral dosing of 4.0 mg/kg SH-337): 3410 ng·h/g | AUC(0-t) ([2]; male, SD, rat, plasma, po, rats, i.g. 4 mg/kg SH-337, read-out: AUC0–24, Plasma): 20.3 ng·h/mL | AUC0–24, Liver ([2]; rats, i.g. 4 mg/kg SH-337): 3411.2 ng equiv. h/mL or g | AUC0–24, Stomach ([2]; rats, i.g. 4 mg/kg SH-337): 94.1 ng equiv. h/mL or g | Percentage of all SH-337 metabolites in microsomes [3]: 89.4-90.2% | Percentage of all the metabolites except SH-337, RLMs ([4]; 30 min): 90.2% | Relative peak area, RLMs ([4]; SH-337 10 µM, 30 min incubation): 49% | IC50 [5]: 112 nM | Relative peak area, Hheps ([6]; SH-337, human hepatocytes, 120 min incubation): 11.6% | Percentage of all the metabolites except SH-337, Hheps ([6]; human hepatocytes, 120 min): 49.4% | Percentage of all the metabolites except SH-337, HLMs ([7]; 60 min): 89.4% | Relative peak area, HLMs ([7]; SH-337 10 µM, 60 min incubation): 27.8% | Relative peak area, RHeps [8]: 40.3% | Percentage of all the metabolites except SH-337, RHeps ([8]; rat hepatocytes, 60 min): 56.1% | Percentage of all SH-337 metabolites in hepatocytes [9]: 49.4–56.1%

CN(Cc1cc(-c2ccc(O)cc2F)n(S(=O)(=O)c2cccnc2)c1)S(=O)(=O)O [M-IV-Sul]
share in the in vitro metabolic profile of vonoprazan [1]: 28%

O=C(O)c1cc(-c2ccccc2F)n(S(=O)(=O)c2cccnc2)c1 [M-I]
AUC0–24 in the liver ([10]; after oral dosing of 2.0 mg/kg vonoprazan, ref [43]): 18400 ng·h/g | fold higher levels compared with those of vonoprazan ([10]; plasma, liver and kidney, rat model, ref [44]): 4.3- to 58 fold | AUC0–24, Liver [10, 13]: 18404.0 ng equiv. h/mL or g | AUC0–24, Plasma [10, 13]: 4392.0 ng equiv. h/mL or g | AUC0–24, Stomach [10, 13]: 918.0 ng equiv. h/mL or g | share in the in vitro metabolic profile of vonoprazan [1]: 18%

NCc1cc(-c2ccccc2F)n(S(=O)(=O)c2cccnc2)c1 [N-demethylated vonoprazan]
share in the in vitro metabolic profile of vonoprazan [1]: 30%

CNCc1cc(-c2ccc(OCc3cnn(C)c3)cc2F)n(S(=O)(=O)c2cccnc2)c1 [S1, 1-(5-(2-fluoro-4-((1-methyl-1H-pyrazol-4-yl)methoxy)phenyl)-1-(pyridin-3-ylsulfonyl)-1H-pyrrol-3-yl)-N-methylmethanamine fumarate]
IC50 [5]: 57.8 nM | logD at 1 h [11]: 0.5 | pKa [12]: 9.26

CNCc1cc(-c2ccc(OCC3COC3)cc2F)n(S(=O)(=O)c2cccnc2)c1 [S2, 1-(5-(2-fluoro-4-(oxetan-3-ylmethoxy)phenyl)-1-(pyridin-3-ylsulfonyl)-1H-pyrrol-3-yl)-N-methylmethanamine dihydrochloride]
IC50 [5]: 129 nM | logD at 1 h [11]: 0.91 | pKa [12]: 9.13

CN(Cc1cc(-c2ccc(OCC3CC3)cc2F)n(S(=O)(=O)c2cccnc2)c1)S(=O)(=O)O [Sulfated SH-337]
Percentage of all SH-337 metabolites in microsomes [3]: 0% | Relative peak area, RHeps [8]: 0.1% | Percentage of all SH-337 metabolites in hepatocytes [9]: 0.13%
